Measurements as given in patent US20220054412A1, “TOPICAL FORMULATION AND METHODS FOR […]” (priority 2020, published 2022).

Assay: Use of the topical neuropathy relief formulation by patients (example cases)
Type: in vivo, human
Settings: Patient, severe debilitating neuropathy for six years; medications tried before the formulation; high doses of gabapentin
From the text: The neuropathy relief formulation is applied in an amount sufficient to cover the affected area of clean dry skin. The neuropathy relief formulation is rubbed into the affected area until no cream remains visible on the surface. The formulation can be applied one, two, three or four times per day as needed for relief of symptoms.
The following example cases are from a few of the individuals who have been successfully treated with the claimed formulation

For NCC1(CC(=O)O)CCCCC1 [gabapentin], the “outcome of earlier medications for neuropathy” value was “unsuccessful”.
In the case of CCC(=O)C(CC(C)N(C)C)(c1ccccc1)c1ccccc1 (centres unmarked) [methadone], the “outcome of earlier medications for neuropathy” value is reported as “unsuccessful”.
